# Source: patent US4515766A, “Labeled phosphonic acid compositions for investigations of in vivo deposits of calcium” (priority 1982, dated 1985)
# Tests used:
# Toxic effects in mice = assay type: in vivo; conditions: 0.032 mg/20 gm
# Text: (§1) Relative to a 70 kg person, this represents a safety factor of 74.7 and 112 respectively.
# Toxic effects in rats = assay type: in vivo; conditions: 0.32 mg/300 gm
# Text: as §1
smiles,measurement,setting,value
O=P(O)(O)C(O)(c1ccccc1)P(=O)(O)O [.PHI.PA],toxic effects observed,Toxic effects in mice,No toxic effects
same,safety factor,"Toxic effects in mice; mouse, in vivo, read-out: safety factor relative to a 70 kg person",112
same,toxic effects observed,Toxic effects in rats,No toxic effects
same,safety factor,"Toxic effects in rats; rat, in vivo, read-out: safety factor relative to a 70 kg person",74.7
